The source of these data is patent US12600716B2 (Gannex Pharma Co., Ltd., priority 2020, dated 2026).

The structures appear in SMILES notation.

The target in one assay is T1, human FXR protein (Homo sapiens, UniProt Q96RI1).
T1 construct: purchased Invitrogen
Nature of the assay: FXR agonist binding ability: time-resolved fluorescence (LanthaScreen) FXR/coactivator assay. The following applies: GST-labeled human FXR, fluorescein-labeled coactivator, TR-FRET. It counts as biochemical. How it is done: FXR Agonist Binding Ability Evaluation of the activation effect of the compound of the present invention with regard to the binding of FXR to its co-stimulatory factor SRC-1 was conducted by using time-resolved analytical techniques. Protein: glutathione-S-transferase (GST)-labeled human FXR protein (Invitrogen) • 2. Coactivator: Fluorescein-labeled steroid receptor coactivator (SRC2-2) (Invitrogen) • 3. Detection reagent: LanthaScreen Time-Resolved Fluorescence Analysis Kit (Invitrogen) • 1. The compound was prepared into a 10 mM DMSO stock solution and stored in a −20° C. refrigerator for a long time. • 2. The compound was diluted to 1 mM before the experiment, and then the compound was diluted 3-fold to 10 concentration points using DMSO. Then use buffer G (Invitrogen, PV4553) to dilute these 10 concentration points by 50 times to become a working fluid. Add 10 μl of each working solution to each well of a 384-well plate. • 3. Prepare a human FXR protein solution (final concentration 20 nM) in chilled buffer G and add 5 μl of human FXR protein solution to each well of a 384-well plate. • 4. Prepare a mix of buffer G containing 2 μM fluorescein-labeled steroid receptor coactivator and 20 nM GST antibody. • 5. Add 5 μl of the mixture prepared in Step 4 to a 384-well plate. • 6. Centrifuge the 384-well plate at 1000 g for 1 minute. • 7. Incubate for 1 hour at room temperature in the dark. • 8. Read the 384-well plate at 520 nm and 495 nm on an Envision 2104 plate reader. • 9. Calculate the EC50 value of the activation effect of the compound.

The next assay concerns the target T2, hFXR-LBD-GAL4 (Homo sapiens, UniProt Q96RI1).
T2 construct: GAL4 (fusion partner); host or cells: HEK293T
T2 sequence (Q96RI1 262-486 limits assumed): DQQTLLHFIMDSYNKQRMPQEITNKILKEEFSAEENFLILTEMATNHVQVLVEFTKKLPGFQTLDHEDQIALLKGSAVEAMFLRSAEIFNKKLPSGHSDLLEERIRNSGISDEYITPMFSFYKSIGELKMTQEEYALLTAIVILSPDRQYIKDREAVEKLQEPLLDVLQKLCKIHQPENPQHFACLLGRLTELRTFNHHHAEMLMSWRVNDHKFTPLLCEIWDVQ
Nature of the assay: FXR agonist transactivation ability: luciferase reporter gene in HEK293T. It counts as cell-based. Conditions: read-out: Cell activity. How it is done:
FXR Agonist Transactivation Ability
Evaluation of the ability of the compound of the present invention to promote FXR transactivation was conducted by using luciferase reporter gene expression technology.
• 1. Cell line: HEK293T (Invitrogen) • 2. Expression plasmid: pBIND-hFXR-LBD-GAL4 (Promega), pGL4.35-luciferase (Promega) • 3. Cell culture medium: 10% serum and penicillin/streptomycin double antibody in DMEM medium • 4. Detection reagent: Steady-Glo fluorescence detection system (Promega). • 5. Transfection reagent: TransIT-293 Transfection Reagent (MIRUS BIO)
• 1. The compound was prepared into a 10 mM DMSO stock solution and stored in a −20° C. refrigerator for a long time. • 2. Resuscitation HEK293T cells were seeded in 10 cm culture dishes at a concentration of 5.5×10^6 and incubated for 16 hours at 37° C. in a 5% CO2 incubator. • 3. Return the transfection reagent to room temperature before transfection. The Trans-IT solution was added dropwise to Opti-MEM, and mixed by inversion for 5 minutes; the expression plasmid was added, mixed by inversion, and incubated at room temperature for 20 minutes. • 4. Add the transfection mixture from Step 3 to the prepared 10 cm dish in Step 2 and incubate for 5-6 hours in a 5% CO2 incubator. • 5. Dilute the compound 3 folds to 10 concentration points using DMSO; add 25 nl of compound per well in a 384-well plate using an Echo 550 sonic pipette; add HEK293T cells to the 384-well plate at a concentration of 15,000 cells/well; 37° C. incubate for 16-20 hours in a 5% CO2 incubator. • 6. Add 25 μl of Steady-Glo Fluorescent Reagent to each well and read the fluorescence on an Envision 2104 plate reader. • 7. Calculate the EC50 value of the activation of the compound.

Take `O=C(O)c1ncccc1Oc1cccc2cc(OCc3c(-c4c(Cl)cccc4Cl)noc3C3CC3)ccc12` [Compound 25, 3-((6-((5-cyclopropyl-3-(2,6-dichlorophenyl)isoxazol-4-yl)methoxy)naphthalen-1-yl)oxy)picolinic acid]: the EC50 is 0.05 to 0.5 µM at human FXR protein and > 1 µM on hFXR-LBD-GAL4.

`O=C(O)c1ccc(Oc2ccc3cc(OCc4c(-c5c(Cl)cccc5Cl)noc4C4CC4)ccc3c2)nc1Cl` [Compound 8, 2-chloro-6-((6-((5-cyclopropyl-3-(2,6-dichlorophenyl)isoxazol-4-yl)methoxy)naphthalen-2-yl)oxy)nicotinic acid]: the EC50 on human FXR protein lay in the range of 0.05 to 0.5 µM; at hFXR-LBD-GAL4, 0.5 to 1 µM.

Regarding `O=C(O)c1cccnc1Oc1cccc2cc(OCc3c(-c4c(Cl)cccc4Cl)noc3C3CC3)ccc12` [Compound 35, 2-((6((5-cyclopropyl-3-(2,6-dichlorophenyl)isoxazol-4-yl)methoxy)naphthalen-1-yl)oxy)nicotinic acid], the results for the EC50 on human FXR protein and on hFXR-LBD-GAL4 were < 0.05 µM and < 0.2 µM, respectively.

Regarding `Cc1cc(C(=O)O)cnc1Oc1ccc2cc(OCc3c(-c4c(Cl)cccc4Cl)noc3C3CC3)ccc2c1` [Compound 5, 6-((6-((5-cyclopropyl-3-(2,6-dichlorophenyl)isoxazol-4-yl)methoxy)naphthalen-2-yl)oxy)-5-methylnicotinic acid], the EC50 is > 0.5 µM at human FXR protein and > 1 µM at hFXR-LBD-GAL4.

As for `O=C(O)c1ccc(Oc2c(F)ccc3cc(OCc4c(-c5c(Cl)cccc5Cl)noc4C4CC4)ccc23)nc1` [Compound 30, 6-((6-((5-cyclopropyl-3-(2,6-dichlorophenyl)isoxazol-4-yl)methoxy)-2-fluoronaphthalen-1-yl)oxy)nicotinic acid], the EC50 at human FXR protein is < 0.05 µM; at hFXR-LBD-GAL4 it was < 0.2 µM.

With `O=C(O)c1cccc(Oc2cccc3cc(OCc4c(-c5c(Cl)cccc5Cl)noc4C4CC4)ccc23)n1` [Compound 23, 6-((6-((5-cyclopropyl-3-(2,6-dichlorophenyl)isoxazol-4-yl)methoxy)naphthalen-1-yl)oxy)picolinic acid], the figures for the EC50 at human FXR protein and on hFXR-LBD-GAL4 were > 0.5 µM and > 1 µM, respectively.

For `O=C(NS(=O)(=O)C1CC1)c1ccc(Oc2ccc3cc(OCc4c(-c5c(Cl)cccc5Cl)noc4C4CC4)ccc3c2)nc1` [Compound 6, 6((6((5-cyclopropyl-3-(2,6-dichlorophenyl)isoxazol-4-yl)methoxy)naphthalen-2-yl)oxy)-N-(cyclopropylsulfonyl)nicotinamide], the EC50 at human FXR protein was 0.05 to 0.5 µM; at hFXR-LBD-GAL4 it was > 1 µM.

As for `O=C(O)c1ccncc1Oc1ccc2cc(OCc3c(-c4c(Cl)cccc4Cl)noc3C3CC3)ccc2c1` [Compound 16, 3-((6-((5-cyclopropyl-3-(2,6-dichlorophenyl)isoxazol-4-yl)methoxy)naphthalen-2-yl)oxy)isonicotinic acid], the results for the EC50 on human FXR protein and on hFXR-LBD-GAL4 were < 0.05 µM and > 1 µM, respectively.

`O=C(O)c1c(F)cccc1Oc1cccc2cc(OCc3c(-c4c(Cl)cccc4Cl)noc3C3CC3)ccc12` [Compound 49]: the figures for the EC50 at human FXR protein and on hFXR-LBD-GAL4 were 0.05 to 0.5 µM and > 1 µM, respectively.

Take `O=C(O)c1ccc(Oc2ccc3cc(OCc4c(-c5c(Cl)cccc5Cl)noc4C4CC4)ccc3c2)cn1` [Compound 9, 5-((6-((5-cyclopropyl-3-(2,6-dichlorophenyl)isoxazol-4-yl)methoxy)naphthalen-2-yl)oxy)picolinic acid]: the EC50 was 0.05 to 0.5 µM at human FXR protein and > 1 µM on hFXR-LBD-GAL4.

Turning to `O=C(O)c1cccnc1Oc1c(F)ccc2cc(OCc3c(-c4c(Cl)cccc4Cl)noc3C3CC3)ccc12` [Compound 48, 2-((6-((5-cyclopropyl-3-(2,6-dichlorophenyl)isoxazol-4-yl)methoxy)-2-fluoronaphthalen-1-yl)oxy)nicotinic acid], the EC50 was < 0.05 µM at human FXR protein and < 0.2 µM on hFXR-LBD-GAL4.

Regarding `O=C(O)c1ccc(Oc2ccc3cc(OCc4c(-c5c(Cl)cccc5Cl)noc4C4CC4)ccc3c2F)nc1` [Compound 20, 6-((6-((5-cyclopropyl-3-(2,6-dichlorophenyl)isoxazol-4-yl)methoxy)-1-fluoronaphthalen-2-yl)oxy)nicotinic acid], the figures for the EC50 at human FXR protein and on hFXR-LBD-GAL4 were 0.05 to 0.5 µM and 0.5 to 1 µM, respectively.

Turning to `Cc1nc(Oc2c(Cl)ccc3cc(OCc4c(-c5c(Cl)cccc5Cl)noc4C4CC4)ccc23)ccc1C(=O)O` [Compound 46, 6((2-chloro-6 ((5-cyclopropyl-3-(2,6-dichlorophenyl)isoxazol-4-yl)methoxy)naphthalen-1-yl)oxy)-2-methylnicotinic acid], the EC50 on human FXR protein was 0.05 to 0.5 µM; on hFXR-LBD-GAL4, < 0.2 µM.

As for `O=C(O)c1ccc(Oc2ccc3c(Cl)c(OCc4c(-c5c(Cl)cccc5Cl)noc4C4CC4)ccc3c2)nc1` [Compound 29, 6-((5-chloro-6-((5-cyclopropyl-3-(2,6-dichlorophenyl)-isoxazol-4-yl)methoxy)naphthalen-2-yl)oxy)nicotinic acid], the EC50 fell in the range of 0.05 to 0.5 µM on human FXR protein and 0.5 to 1 µM at hFXR-LBD-GAL4.

`O=C(O)c1ncccc1Oc1ccc2cc(OCc3c(-c4c(Cl)cccc4Cl)noc3C3CC3)ccc2c1` [Compound 13, 3-((6-((5-cyclopropyl-3-(2,6-dichlorophenyl)isoxazol-4-yl)methoxy)naphthalen-2-yl)oxy)picolinic acid]: the EC50 at human FXR protein was 0.05 to 0.5 µM; on hFXR-LBD-GAL4, > 1 µM.

In the case of `O=C(O)c1ccc(Oc2c(Cl)cc(Cl)c3cc(OCc4c(-c5c(Cl)cccc5Cl)noc4C4CC4)ccc23)nc1` [Compound 41, 6-((2,4-dichloro-6-((5-cyclopropyl-3-(2,6-dichlorophenyl)isoxazol-4-yl)methoxy)naphthalen-1-yl)oxy)nicotinic acid], the EC50 on human FXR protein was > 0.5 µM; at hFXR-LBD-GAL4, > 1 µM.

Regarding `Cc1nc(Oc2ccc3cc(OCc4c(-c5c(Cl)cccc5Cl)noc4C4CC4)ccc3c2Cl)ccc1C(=O)O` [Compound 43, 6-((1-chloro-6-((5-cyclopropyl-3-(2,6-dichlorophenyl)isoxazol-4-yl)methoxy)naphthalen-2-yl)oxy)-2-methylnicotinic acid], the EC50 at human FXR protein was in the range of 0.05 to 0.5 µM; at hFXR-LBD-GAL4, 0.5 to 1 µM.

Regarding `O=C(O)c1cnc(Oc2ccc3cc(OCc4c(-c5c(Cl)cccc5Cl)noc4C4CC4)ccc3c2)c(Cl)c1` [Compound 3, 5-chloro-6-((6-((5-cyclopropyl-3-(2,6-dichlorophenyl)isoxazol-4-yl)methoxy)naphthalen-2-yl)oxy)nicotinic acid], the results for the EC50 at human FXR protein and on hFXR-LBD-GAL4 were > 0.5 µM and > 1 µM, respectively.

For the compound `O=C(O)c1ccnc(Oc2ccc3cc(OCc4c(-c5c(Cl)cccc5Cl)noc4C4CC4)ccc3c2)c1` [Compound 12, 2-((6-((5-cyclopropyl-3-(2,6-dichlorophenyl)isoxazol-4-yl)methoxy)naphthalen-2-yl)oxy)isonicotinic acid], the figures for the EC50 at human FXR protein and on hFXR-LBD-GAL4 were < 0.05 µM and > 1 µM, respectively.

In the case of `O=C(O)c1cccnc1Oc1ccc2cc(OCc3c(-c4c(Cl)cccc4Cl)noc3C3CC3)ccc2c1` [Compound 15, 2-((6-((5-cyclopropyl-3-(2,6-dichlorophenyl)isoxazol-4-yl)methoxy)naphthalen-2-yl)oxy)nicotinic acid], the EC50 on human FXR protein is 0.05 to 0.5 µM; on hFXR-LBD-GAL4 it was > 1 µM.

On to `O=C(O)c1ccc(Oc2ccc3cc(OCc4c(-c5c(Cl)cc(F)cc5Cl)noc4C4CC4)ccc3c2)nc1` [Compound 18], for which the EC50 at human FXR protein is 0.05 to 0.5 µM; on hFXR-LBD-GAL4, > 1 µM.
